Test results reported in patent US20210322327A1, “EXTRACELLULAR VESICLES COMPRISING STING-AGONIST” (Codiak BioSciences, Inc., priority 2018, published 2021).

Experiments:
[1] = test system: B16F10 murine melanoma cells; assay: B16F10 tumor growth in C57BL/6 and STING knock-out mice; type: in vivo, C57BL/6 mice and C57BL/6-Tmem173^gt mice
Description: To confirm that the effects observed in FIGS. 54-58 were translated to anti-tumor activity, C57BL/6 mice and C57BL/6-Tmem173^gt mice were inoculated subcutaneously with 1×10^6 B16F10 murine melanoma cells (n=5 mice per group). Seven, ten, and thirteen days post-inoculation, the mice were injected intratumorally with PBS, exosomes, 20 μg of free 3-3 cAIMPdFSH, or 0.1 μg of 3-3 cAIMPdFSH loaded in PTGFRN-overexpressing exosomes. Tumor volumes were measured daily until day 19, and animals were sacrificed when tumor volume reached 2000 mm^3.

[2] = test system: CT26.CL25 cells; assay: CT26.CL25 colorectal tumor growth; type: in vivo, BALB/c mice; details: 0.012 μg free, days 13, 16, 19
Description: To test and expand in vivo efficacy to other types of tumors, BALB/c mice were inoculated subcutaneously with 5×10^5 CT26.CL25 cells (ATCC®; CRL-2639™), a murine colorectal cancer cell line engineered to stably express beta-galactosidase, or 5×10^5 CT26.WT cells (ATCC®; CRL-2638™) (n=5-7 mice per group). Thirteen, sixteen, and nineteen days post-inoculation the mice were injected intratumorally into CT26.CL25 tumor with exosomes, 0.012 μg of free 3-3 cAIMPdFSH, or 0.012 μg-3 cAIMPdFSH loaded in PTGFRN-overexpressing exosomes and into CT26.WT tumor with PBS, exosomes, 100 μg of free ML RR-S2 CDA, or 0.2 μg-3 cAIMPdFSH loaded in PTGFRN-overexpressing exosomes.

[3] = test system: IFNβ, CXCL9, CXCL10, IFNγ; serum cytokines; assay: Cytokine levels after subcutaneous injection in naïve mice; type: in vivo, C57BL/6 mice; details: 20 μg free, four hours
Description: To compare in vivo activity of free STING agonist and STING agonist-loaded exosomes beyond intratumoral dosing, naïve C57BL/6 mice were injected subcutaneously with PBS, exosomes, 20 μg of free 3-3 cAIMPdFSH or 0.2 μg 3-3 cAIMPdFSH loaded in PTGFRN-overexpressing exosomes. Four hours post-injection, lymph nodes, spleens, livers, and serum were collected and cytokine levels were measured.

[4] = test system: B16F10 tumor and stroma area; assay: IFNβ in situ hybridization and CD8, F4/80 immunohistochemistry in B16F10 tumor sections; type: in vivo, C57BL/6 mice; details: 20 μg free
Description: Four groups of C57BL/6 mice (5 mice per group) were inoculated subcutaneously with 1×10^6 B16F10 tumor cells. Eight days post-inoculation the mice were injected intratumorally with dose of exosomes, 20 μg of free 3-3 cAIMPdFSH, 0.1 μg of free 3-3 cAIMPdFSH, or 0.1 μg of 3-3 cAIMPdFSH loaded in PTGFN-overexpressing exosomes (EXOSTING™). Half of the mice were injected again intratumorally at day 11 after the inoculation. Four- or 24-hours post-injection of each injection, the tumors were collected, cytokine levels were measured by in situ hybridization, and CD8 or F4/80 positive cells were counted by immunohistochemistry. Tumor area and stroma area were identified histologically. IFNβ gene expression levels in the tumor (FIG. 77A) and stroma (FIG. 77B) area were increased in the 20 μg free STING agonist and 0.1 μg EXOSTING™ groups at 4h after single dose. […] F4/80 positive cells were decreased in 20 μg free STING agonist group, but cells were recovered in 0.1 μg EXOSTING™ group (FIG. 78B).

[5] = test system: E.G7-OVA cells; assay: E.G7-OVA T-cell lymphoma tumor growth, intratumoral injection; type: in vivo, C57BL/6 mice
Description: (§1) To test this hypothesis, C57BL/6 mice were inoculated subcutaneously with 1×10^6 E.G7-OVA cells (ATCC®; CRL-2113™), a murine T-cell lymphoma cell line engineered to stably express OVA and allow for modeling antigen-specific T-cell responses in mice (n=5 mice per group). Ten, 13, and 16 days post-inoculation the mice were injected intratumorally with PBS, 20 μg ML RR-S2, 0.2 μg ML RR-S2, or 0.2 μg ML RR-S2 loaded in PTGFRN-overexpressing exosomes). […] Splenic T-cells from all groups were isolated and measured for OVA-specific reactivity as described in Example 11.

[6] = test system: OVA-reactive splenic T-cells; assay: OVA-specific memory T-cell response in E.G7-OVA model; type: in vivo, C57BL/6 mice
Description: STING pathway agonism in dendritic cells enhances antigen presentation, IFNβ production, and recruits CD8+ memory T-cells to elicit a durable adaptive immune response. To determine whether Exo STING could induce a memory T-cell response to a defined antigen, an antigen-specific T-cell response study was carried out using purified ovalbumin (OVA). C57BL/6 mice were injected intraperitoneally with 200 μg OVA mixed with either PBS, 20 μg ML RR-S2, 0.2 μg ML RR-S2, or 0.2 μg ML RR-S2 loaded in PTGFRN-overexpressing exosomes (n=4-10 mice per group). […] Isolated lymphocytes were analyzed by flow cytometry by measuring binding to immobilized tetrameric MHC class I bound to the OVA peptide SIINFEKL and phycoerythrin (PE) (iTAg Tetramer/PE—H-2 OVA; MBL®, Code #T03000). OVA-reactive memory T-cells were quantified by gating on PE, CD44, and CD8 positivity.
as §1, with “group).” for “group). Ten, 13, and 16 days post-inoculation the mice were injected intratumorally with PBS, 20 μg ML RR-S2, 0.2 μg ML RR-S2, or 0.2 μg ML RR-S2 loaded in PTGFRN-overexpressing exosomes).”

[7] = test system: CD8+ T-cells, macrophages, and dendritic cells; assay: Live CD45+ cell populations in B16F10 tumors 24 hours post-injection; type: in vivo, mice; details: 20 μg intratumoral
Description: Constitutive activation of the STING pathway results in robust pro-inflammatory signaling and may be toxic to cells and tissues (N Engl J Med. 2014 Aug. 7; 371(6): 507-518). Non-selective delivery of STING agonists in a tumor microenvironment may result in a robust IFNβ response, but if response is too strong or originates in undesired cell populations, effector cells such as CD8^+ T-cells may be killed or otherwise attenuated. B16F10 melanoma tumors were injected with PTGFRN-overexpressing exosomes labeled with Alexa Fluor™ 488 and removed one hour post-injection. Tumor-infiltrating lymphocytes were purified and measured for fluorescence at 488 nm to track exosome uptake. Only ˜20% of T-cells engulfed exosomes, while ˜90% and ˜70% of macrophages and dendritic cells, respectively, engulfed exosomes (FIG. 51A). […] 24 hours post-injection, the tumors were isolated, homogenized, and live CD45^+ cell populations were counted. […] Non-selective delivery of high doses of STING agonists therefore may attenuate desirable immune stimulatory responses.

Nc1ncnc2c1ncn2[C@@H]1O[C@@H]2COP(=O)(S)O[C@H]3[C@@H](F)[C@H](n4cnc5c(=O)[nH]cnc54)O[C@@H]3COP(O)(=S)O[C@H]2[C@H]1F (stereo partly shown) [3-3 cAIMPdFSH, 3′3′-cAIMPdFSH]
tumor regression ([1]; C57BL/6-Tmem173^gt mice, 20 μg free): no tumor regression was observed | tumor regression ([1]; C57BL/6 mice, free, printed 20 g, days 7, 10, 13): dramatically improved tumor regression | tumor growth compared to control [2]: moderately attenuated tumor growth | IFNβ gene expression in lymph nodes, spleens, livers [3]: significantly elevated | CD8 positive T cells [4]: not increased | F4/80 positive cells [4]: decreased | level of IFNβ in tumor and stroma area ([4]; 4h after second doses): significantly decreased | IFNβ gene expression in tumor and stroma area ([4]; 4h after single dose): increased

Nc1ncnc2c1ncn2[C@@H]1O[C@@H]2COP(O)(=S)O[C@@H]3C(O)[C@@H](COP(O)(=S)O[C@H]2[C@H]1O)O[C@H]3n1cnc2c(N)ncnc21 (stereo partly shown) [ML RR-S2 CDA]
tumor growth compared to PBS ([5]; 0.2 μg intratumoral days 10, 13, 16): moderately attenuated tumor growth | tumor growth compared to PBS ([5]; 20 μg intratumoral days 10, 13, 16): dramatically prevented tumor growth | memory T-cell response (OVA-specific) ([6]; 0.2 μg intratumoral): modest memory T-cell response | memory T-cell response (OVA-specific) ([6]; 20 μg intratumoral): potent memory T-cell response | CD8+ T-cells, macrophages, and dendritic cells in tumor [7]: dramatically reduced compared to the other groups
